ChEMBL document CHEMBL1275261, “Nationwide investigation of extended-spectrum beta-lactamases, metallo-beta-lactamases, and extended-spectrum oxacillinases produced by ceftazidime-resistant Pseudomonas aeruginosa strains in France” (2010)
≈ marks a conversion by molar mass, not a printed value.

Experiments:
Format in all cases: functional
[1] = system: Pseudomonas aeruginosa; assay: Antibacterial activity against OXA-30, PSE-1, VIM-2 and PER-1 producing Pseudomonas aeruginosa isolate P19 exhibiting PFGE F pattern by 2-fold agar dilution method
[2] = system: Pseudomonas aeruginosa; assay: Antibacterial activity against OXA-10, PSE-1, VIM-2 and PER-1 producing Pseudomonas aeruginosa isolate P22 exhibiting PFGE F pattern by 2-fold agar dilution method
[3] = system: Pseudomonas aeruginosa; assay: Antibacterial activity against SHV-2a producing Pseudomonas aeruginosa isolate P102 exhibiting PFGE H pattern by 2-fold agar dilution method
[4] = system: Pseudomonas aeruginosa; assay: Antibacterial activity against IMP-18 producing Pseudomonas aeruginosa isolate P85 exhibiting PFGE K pattern by 2-fold agar dilution method
[5] = system: Pseudomonas aeruginosa; assay: Antibacterial activity against OXA-28 producing Pseudomonas aeruginosa isolate P174 exhibiting PFGE E pattern by 2-fold agar dilution method
[6] = system: Pseudomonas aeruginosa; assay: Antibacterial activity against VIM-2 producing Pseudomonas aeruginosa isolate P67 exhibiting PFGE J pattern by 2-fold agar dilution method
[7] = system: Pseudomonas aeruginosa; assay: Antibacterial activity against VEB-1a and OXA-10 producing Pseudomonas aeruginosa isolate P151 exhibiting PFGE I pattern by 2-fold agar dilution method
[8] = system: Pseudomonas aeruginosa; assay: Antibacterial activity against OXA-19 producing Pseudomonas aeruginosa isolate P9 exhibiting PFGE A pattern by 2-fold agar dilution method
[9] = system: Pseudomonas aeruginosa; assay: Antibacterial activity against SHV-2a producing Pseudomonas aeruginosa isolate P60 exhibiting PFGE H pattern by 2-fold agar dilution method
[10] = system: Pseudomonas aeruginosa; assay: Antibacterial activity against PER-1 producing Pseudomonas aeruginosa isolate P170 exhibiting PFGE G pattern by 2-fold agar dilution method
[11] = system: Pseudomonas aeruginosa; assay: Antibacterial activity against OXA-2 and OXA-19 producing Pseudomonas aeruginosa isolate P66 exhibiting PFGE C pattern by 2-fold agar dilution method
[12] = system: Pseudomonas aeruginosa; assay: Antibacterial activity against OXA-19 producing Pseudomonas aeruginosa isolate P122 exhibiting PFGE A pattern by 2-fold agar dilution method
[13] = system: Pseudomonas aeruginosa; assay: Antibacterial activity against OXA-19 producing Pseudomonas aeruginosa isolate P11 exhibiting PFGE A pattern by 2-fold agar dilution method
[14] = system: Pseudomonas aeruginosa; assay: Antibacterial activity against OXA-30, PSE-1, VIM-2 and PER-1 producing Pseudomonas aeruginosa isolate P19 exhibiting PFGE F pattern by 2-fold agar dilution method in presence of 4 ug/ml Tazobactam
[15] = system: Pseudomonas aeruginosa; assay: Antibacterial activity against IMP-18 producing Pseudomonas aeruginosa isolate P85 exhibiting PFGE K pattern by 2-fold agar dilution method in presence of 4 ug/ml Tazobactam
[16] = system: Pseudomonas aeruginosa; assay: Antibacterial activity against OXA-2 and OXA-19 producing Pseudomonas aeruginosa isolate P66 exhibiting PFGE C pattern by 2-fold agar dilution method in presence of 4 ug/ml Tazobactam
[17] = system: Pseudomonas aeruginosa; assay: Antibacterial activity against VIM-2 producing Pseudomonas aeruginosa isolate P67 exhibiting PFGE J pattern by 2-fold agar dilution method in presence of 4 ug/ml Tazobactam
[18] = system: Pseudomonas aeruginosa; assay: Antibacterial activity against OXA-28 producing Pseudomonas aeruginosa isolate P174 exhibiting PFGE E pattern by 2-fold agar dilution method in presence of 4 ug/ml Tazobactam
[19] = system: Pseudomonas aeruginosa; assay: Antibacterial activity against OXA-10, PSE-1, VIM-2 and PER-1 producing Pseudomonas aeruginosa isolate P22 exhibiting PFGE F pattern by 2-fold agar dilution method in presence of 4 ug/ml Tazobactam
[20] = system: Pseudomonas aeruginosa; assay: Antibacterial activity against SHV-2a producing Pseudomonas aeruginosa isolate P102 exhibiting PFGE H pattern by 2-fold agar dilution method in presence of 4 ug/ml Tazobactam
[21] = system: Pseudomonas aeruginosa; assay: Antibacterial activity against VEB-1a and OXA-10 producing Pseudomonas aeruginosa isolate P151 exhibiting PFGE I pattern by 2-fold agar dilution method in presence of 4 ug/ml Tazobactam
[22] = system: Pseudomonas aeruginosa; assay: Antibacterial activity against OXA-19 producing Pseudomonas aeruginosa isolate P9 exhibiting PFGE A pattern by 2-fold agar dilution method in presence of 4 ug/ml Tazobactam
[23] = system: Pseudomonas aeruginosa; assay: Antibacterial activity against SHV-2a producing Pseudomonas aeruginosa isolate P60 exhibiting PFGE H pattern by 2-fold agar dilution method in presence of 4 ug/ml Tazobactam
[24] = system: Pseudomonas aeruginosa; assay: Antibacterial activity against OXA-19 producing Pseudomonas aeruginosa isolate P122 exhibiting PFGE A pattern by 2-fold agar dilution method in presence of 4 ug/ml Tazobactam
[25] = system: Pseudomonas aeruginosa; assay: Antibacterial activity against OXA-19 producing Pseudomonas aeruginosa isolate P11 exhibiting PFGE A pattern by 2-fold agar dilution method in presence of 4 ug/ml Tazobactam
[26] = system: Pseudomonas aeruginosa; assay: Antibacterial activity against PER-1 producing Pseudomonas aeruginosa isolate P170 exhibiting PFGE G pattern by 2-fold agar dilution method in presence of 4 ug/ml Tazobactam

| Compound | MIC [1] [µg/mL] | MIC [2] [µg/mL] | MIC [3] [µg/mL] | MIC [4] [µg/mL] | MIC [5] [µg/mL] | MIC [6] [µg/mL] | MIC [7] [µg/mL] | MIC [8] [µg/mL] | MIC [9] [µg/mL] | MIC [10] [µg/mL] | MIC [11] [µg/mL] | MIC [12] [µg/mL] | MIC [13] [µg/mL] | other results |
| --- | --- | --- | --- | --- | --- | --- | --- | --- | --- | --- | --- | --- | --- | --- |
| CO/N=C(\C(=O)N[C@@H]1C(=O)N2C(C(=O)[O-])=C(C[N+]3(C)CCCC3)CS[C@H]12)c1csc(N)n1 | 128 (≈ 266 µM) | 128 (≈ 266 µM) | 64 (≈ 133 µM) | 256 (≈ 533 µM) | 32 (≈ 66.6 µM) | 64 (≈ 133 µM) | > 512 | 64 (≈ 133 µM) | 64 (≈ 133 µM) | 64 (≈ 133 µM) | 16 (≈ 33.3 µM) | – | – | – |
| NCC[C@H](O)C(=O)N[C@@H]1C[C@H](N)[C@@H](O[C@H]2O[C@H](CN)[C@@H](O)[C@H](O)[C@H]2O)[C@H](O)[C@H]1O[C@H]1O[C@H](CO)[C@@H](O)[C@H](N)[C@H]1O [AMIKACIN] | 64 (≈ 109 µM) | 64 (≈ 109 µM) | 128 (≈ 219 µM) | > 512 | 16 (≈ 27.3 µM) | 32 (≈ 54.6 µM) | 128 (≈ 219 µM) | 16 (≈ 27.3 µM) | 32 (≈ 54.6 µM) | 32 (≈ 54.6 µM) | 128 (≈ 219 µM) | 8 (≈ 13.7 µM) | 8 (≈ 13.7 µM) | – |
| C[C@H]1[C@H](NC(=O)/C(=N\OC(C)(C)C(=O)O)c2csc(N)n2)C(=O)N1S(=O)(=O)O [AZTREONAM] | 128 (≈ 294 µM) | 256 (≈ 588 µM) | 32 (≈ 73.5 µM) | 16 (≈ 36.7 µM) | 32 (≈ 73.5 µM) | 32 (≈ 73.5 µM) | > 512 | 16 (≈ 36.7 µM) | 32 (≈ 73.5 µM) | 128 (≈ 294 µM) | 16 (≈ 36.7 µM) | – | – | – |
| CC(C)(O/N=C(\C(=O)N[C@@H]1C(=O)N2C(C(=O)[O-])=C(C[n+]3ccccc3)CS[C@H]12)c1csc(N)n1)C(=O)O [CEFTAZIDIME] | 256 (≈ 468 µM) | 256 (≈ 468 µM) | 64 (≈ 117 µM) | > 512 | 256 (≈ 468 µM) | 128 (≈ 234 µM) | > 512 | 256 (≈ 468 µM) | 64 (≈ 117 µM) | 256 (≈ 468 µM) | 64 (≈ 117 µM) | 256 (≈ 468 µM) | 256 (≈ 468 µM) | – |
| O=C(O)c1cn(C2CC2)c2cc(N3CCNCC3)c(F)cc2c1=O [CIPROFLOXACIN] | – | – | 32 (≈ 96.6 µM) | 128 (≈ 386 µM) | 128 (≈ 386 µM) | 128 (≈ 386 µM) | 512 (≈ 1550 µM) | 64 (≈ 193 µM) | 32 (≈ 96.6 µM) | 64 (≈ 193 µM) | 128 (≈ 386 µM) | 64 (≈ 193 µM) | 32 (≈ 96.6 µM) | – |
| C[C@@H](O)[C@H]1C(=O)N2C(C(=O)O)=C(SCCNC=N)C[C@H]12 [IMIPENEM ANHYDROUS] | 128 (≈ 428 µM) | 128 (≈ 428 µM) | 16 (≈ 53.4 µM) | 64 (≈ 214 µM) | 4 (≈ 13.4 µM) | 512 (≈ 1710 µM) | 32 (≈ 107 µM) | 16 (≈ 53.4 µM) | 1 (≈ 3.34 µM) | 4 (≈ 13.4 µM) | 1 (≈ 3.34 µM) | 8 (≈ 26.7 µM) | 8 (≈ 26.7 µM) | – |
| CCN1CCN(C(=O)N[C@@H](C(=O)N[C@@H]2C(=O)N3[C@@H]2SC(C)(C)[C@@H]3C(=O)O)c2ccccc2)C(=O)C1=O [PIPERACILLIN] | – | – | – | – | – | – | – | – | – | – | – | – | – | MIC [14]: 256 µg/mL; MIC [15]: 128 µg/mL; MIC [16]: 32 µg/mL; MIC [17]: 32 µg/mL; MIC [18]: 128 µg/mL; MIC [19]: 256 µg/mL; MIC [20]: 128 µg/mL; MIC [21]: 256 µg/mL; MIC [22]: 128 µg/mL; MIC [23]: 128 µg/mL; MIC [24]: 64 µg/mL; MIC [25]: 64 µg/mL; MIC [26]: 128 µg/mL |
| CC1(C)S[C@@H]2[C@H](NC(=O)[C@H](C(=O)O)c3ccsc3)C(=O)N2[C@H]1C(=O)O [TICARCILLIN] | > 512 | > 512 | > 512 | > 512 | 128 (≈ 333 µM) | > 512 | > 512 | 512 (≈ 1330 µM) | > 512 | 512 (≈ 1330 µM) | 512 (≈ 1330 µM) | 256 (≈ 666 µM) | 256 (≈ 666 µM) | – |
